Data as given in patent publication US4940705A, “N-substituted derivatives of 1-desoxynojirimycin and 1-desoxymannonojirimycin and pharmaceutical use” (Bayer Aktiengesellschaft, priority 1987, dated 1990).
In brackets after ≈: the same amount, converted by molar mass.

Assays:
Visna virus = Visna virus test: inhibition of virus-induced cytopathic effect / virus multiplication in infected cell cultures; type: cell-based; conditions: Visna-maedi virus, 168 h, sheep fibroblast cells, 7 days at 37° C., Table 1, read-out: 2 MIC (minimum concentration at which an inhibition of virus multiplication was still observed)
Procedure: In cell cultures which are infected with Visna virus, pronounced virus-induced, cytopathic effects appear 5 to 10 days after infection. By treatment of the infected cell cultures with the compounds according to the invention, the appearance of these cytopathic effects could be prevented.
(§1) The Visna virus test was carried out by the method of O. Narayan et al., Journal of Infectious Diseases 135, 5, 1977, 800-806. For this, the compounds according to the invention were diluted to non-cytotoxic concentrations in culture medium in 96-well microtiter plates. Subsequently, sheep fibroblast cells (5×10^4 cells per well) in production medium were added to each well. Each well then contained 50 μl of a Visna virus solution having a titre of about 2.5×10^4TCID50 (TCID=tissue culture infectious dose). This virus dose corresponds to an MOI (multiplicity of infection) of about 0.05.
The infected and treated cells and the controlled cells were incubated for 7 days at 37° C. and 5% CO2.
On appearance of the virus-induced cytopathogenic effect in the untreated virus control, the cultures were fixed using formalin and subsequently stained with a Giemsa solution.
(§2) Herein, MCC denotes cytotoxicity and MIC denotes the minimum concentration at which an inhibition of virus multiplication was still observed.

Cytotoxicity (MCC) = type: cell-based; conditions: sheep, sheep fibroblast cells; MCC denotes cytotoxicity; Table 1
Procedure: as §1, §2

SMILES	MIC (Visna virus) [µg/mL]	MCC (Cytotoxicity (MCC)) [µg/mL]
COc1ccc(NC(=O)CCN2C[C@H](O)[C@@H](O)[C@H](O)[C@H]2CO)cc1OC [Example 24, N-(3,4-Dimethoxyphenyl)-3-(1,5-didesoxy-1,5-imino-D-glucit-N-yl)propionamide]	125 (≈ 337 µM)	> 1000
O=C(CCN1C[C@H](O)[C@@H](O)[C@H](O)[C@H]1CO)N1CCc2ccccc21 [Example 17, 1-[3-(1,5-Didesoxy-1,5-imino-D-glucit-N-yl)propionyl]-2,3-dihydroindole]	125 (≈ 372 µM)	1000
CCOc1ccc(NC(=O)CCN2C[C@@H](O)[C@@H](O)[C@H](O)[C@H]2CO)cc1 [Example 76, N-(4-Ethoxyphenyl)-3-(1,5-didesoxy-1,5-imino-D-mannit-N-yl)propionamide]	500 (≈ 1410 µM)	> 1000
O=C(CCN1C[C@H](O)[C@@H](O)[C@H](O)[C@H]1CO)NCc1ccccn1 [Example 38, N-(2-Pyridylmethyl)-3-(1,5-didesoxy-1,5-imino-D-glucit-N-yl)propionamide]	250 (≈ 768 µM)	1000
CCCCNC(=O)CCN1C[C@H](O)[C@@H](O)[C@H](O)[C@H]1CO [Example 104, N-Butyl-3-(1,5-didesoxy-1,5-imino-D-glucit-N-yl)propionamide]	250 (≈ 861 µM)	> 1000
CSc1ccccc1NC(=O)CCN1C[C@H](O)[C@@H](O)[C@H](O)[C@H]1CO [Example 32, N-(2-Methylthiophenyl)-3-(1,5-didesoxy-1,5-imino-D-glucit-N-yl)propionamide]	250 (≈ 701 µM)	> 1000
O=C(CCN1C[C@@H](O)[C@@H](O)[C@H](O)[C@H]1CO)Nc1ccc(F)c(F)c1 [Example 60, N-(3,4-Difluorophenyl)-3-(1,5-didesoxy-1,5-imino-D-mannit-n-yl)propionamide]	500 (≈ 1440 µM)	> 1000
N#Cc1cccc(NC(=O)CCN2C[C@@H](O)[C@@H](O)[C@H](O)[C@H]2CO)c1 [Example 68, N-(3-Cyanophenyl)-3-(1,5-didesoxy-1,5-imino-D-mannit-N-yl)propionamide]	250 (≈ 745 µM)	500
C=CCOc1ccc(NC(=O)CCN2C[C@@H](O)[C@@H](O)[C@H](O)[C@H]2CO)cc1 [Example 51, N-(4-Allyloxyphenyl)-3-(1,5-didesoxy-1,5-imino-D-mannit-N-yl)propionamide]	250 (≈ 682 µM)	1000
COC(=O)c1ccc(NC(=O)CCN2C[C@@H](O)[C@@H](O)[C@H](O)[C@H]2CO)cc1 [Example 43, N-(4-Methoxycarbonylphenyl)-3-(1,5-didesoxy-1,5-imino-D-mannit-N-yl)propionamide]	500 (≈ 1360 µM)	> 1000
C=CCOc1ccc(NC(=O)CCN2C[C@H](O)[C@@H](O)[C@H](O)[C@H]2CO)cc1 [Example 10, N-(4-Allyloxyphenyl)-3-(1,5-didesoxy-1,5-imino-D-glucit-N-yl)propionamide]	30 (≈ 81.9 µM)	> 1000
Cc1ccccc1N1CCN(C(=O)CCN2C[C@H](O)[C@@H](O)[C@H](O)[C@H]2CO)CC1 [Example 96, 3-(1,5-Didesoxy-1,5-imino-D-glucit-N-yl)propionyl-1-(4-2-methylphenyl)piperazine]	500 (≈ 1270 µM)	> 1000
O=C(CCN1C[C@H](O)[C@@H](O)[C@H](O)[C@H]1CO)Nc1ccc2c(c1)OCCO2 [Example 29, N-(3,4-Ethylenedioxyphenyl)-3-(1,5-didesoxy-1,5-imino-D-glucit-N-yl)propionamide]	125 (≈ 339 µM)	> 1000
O=C(CCN1C[C@H](O)[C@@H](O)[C@H](O)[C@H]1CO)N1CCN(c2ncccn2)CC1 [Example 99, 3-(1,5-Didesoxy-1,5-imino-D-glucit-N-yl)-propionyl-1-(4-[2-pyrimidyl])piperazine]	125 (≈ 328 µM)	> 1000
O=C(CCN1C[C@H](O)[C@@H](O)[C@H](O)[C@H]1CO)Nc1ccc(C2CCCCC2)cc1 [Example 28, N-(4-Cyclohexylphenyl)-3-(1,5-didesoxy-1,5-imino-D-glucit-N-yl)propionamide]	500 (≈ 1270 µM)	> 1000
